This passage reports IC50, Activity and inhibition results from ChEMBL document CHEMBL3351910, “Two new antioxidant actinosporin analogues from the calcium alginate beads culture of sponge-associated Actinokineospora sp. strain EG49” (Bioorg Med Chem Lett, 2014).

A word on the IC50: it is the concentration at which inhibition is half-maximal. A low value points to inhibition by little substance.

Series [1] has as its system Trypanosoma brucei brucei. In words: Antiparasitic activity against Trypanosoma brucei brucei. It counts as functional, organism-based.
For series [2], the system named is HL-60. In words: Protection against H2O2-induced human HL60 cells assessed as reduction in DNA damage at 50 uM after 30 mins by comet assay. In kind it is functional, cell-based.
Series [3] is described as follows: Antioxidant activity assessed as ferric ion reducing activity at 2 nM to 200 uM by FRAP assay. As to conditions: 0.002 µM. It counts as physicochemical.
A short description of series [4]: Cytotoxicity against human HL60 cells assessed as cell viability up to 50 uM after 24 hrs by fluorescence microscopy. It counts as cell-based. As to conditions: hl-60, 24 h.
Series [5] has as its system HL-60. Description: Protection against H2O2-induced human HL60 cells assessed as reduction in DNA damage at 10 uM after 30 mins by comet assay. It counts as functional, cell-based.
The subject of series [6] is HL-60. In words: Protection against H2O2-induced human HL60 cells assessed as reduction in DNA damage at 2.5 uM after 30 mins by comet assay. It counts as functional, cell-based.
Series [7] has as its system HL-60. Description: Protection against H2O2-induced human HL60 cells assessed as reduction in DNA damage at 1.25 uM after 30 mins by comet assay. In kind it is functional, cell-based.
Series [8] is described as follows: Cytotoxicity against human HL60 cells assessed as cell viability up to 50 uM after 4 hrs by fluorescence microscopy. In kind it is cell-based. As to conditions: hl-60, 4 h.
Series [9] can be described thus: Cytotoxicity against human HL60 cells assessed as induction of DNA damage at 1.25 to 10 uM after 24 hrs by fluorescence microscopy. It counts as cell-based. As to conditions: hl-60, 24 h.

Activity calls are given as the source filed them. The rule behind the calls is not given here.

For the molecule `Cc1cc(O[C@@H]2O[C@@H](C)[C@H](O)[C@@H](O)[C@H]2O)c2c3c(c(O[C@@H]4O[C@@H](C)[C@H](O)[C@@H](O)[C@H]4O)cc2c1)C(=O)c1c(O)cccc1C3=O`, the IC50 in series [1] was determined as 15 µM.

Regarding `CC1(C)CC(O)CC(C)(C)N1[O]`, in the series on HL-60 [2], the outcome was Active.

In the case of `Cc1cc(O[C@@H]2O[C@@H](C)[C@H](O)[C@@H](O)[C@H]2O)c2c3c(ccc2c1)C(=O)c1c(O[C@@H]2O[C@@H](C)[C@H](O)[C@@H](O)[C@H]2O)cccc1C3=O`, the Activity entry was “Active” in series [3], “Non-toxic” in series [4], “Non-toxic” in series [8] and “Non-toxic” in series [9]. In addition, in series [1], the inhibition entry was “inactive”. Further, the result with HL-60 [5], in the series with HL-60 [6] and with HL-60 [7] was Active.

Turning to `Cc1cc(O[C@@H]2O[C@@H](C)[C@H](O)[C@@H](O)[C@H]2O)c2c3c(c(O)cc2c1)C(=O)c1c(O[C@@H]2O[C@@H](C)[C@H](O)[C@@H](O)[C@H]2O)cccc1C3=O`, the Activity entry in series [3] is “Active”; in [4], “Toxic”; in [8] it was “Non-toxic”; in series [9] it was “Non-toxic”. Moreover, the inhibition entry in series [1] is “inactive”. Also, the outcome in the series with HL-60 [5], with HL-60 [6] and with HL-60 [7] was Active.
